We go through 14 compounds from patent US20100041642A1, “UREA INHIBITORS OF MAP KINASES” (LOCUS PHARMACEUTICALS, INC., priority 2008, published 2010).

This experiment has as its target p38 (Homo sapiens, UniProt Q16539). Kind of experiment: Protein Kinase Assay (33P incorporation from γ-[33P]ATP into GST-ATF-2). The experiment is classed as biochemical. As to conditions: 2 nM p38, preincubated 20 min at 30° C.; 10 uM cold ATP, 2 uM GST-ATF2, 70 min; read-out: ACT. (Activity), IC50 category in Protein Kinase Assay. A digest of the protocol:
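Compounds preincubated 20 min at 30 °C with 2 nM p38; reaction started with 2 uM GST-ATF-2 (aa 19-96) and 10 uM ATP plus γ-[33P]ATP, pH 7.5, 70 min at 30 °C, 2% DMSO. Phosphoric acid stop; 33P-labelled substrate captured on phosphocellulose and counted by scintillation.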

Sequence of p38 (Q16539 whole entry, the tested form may be a part): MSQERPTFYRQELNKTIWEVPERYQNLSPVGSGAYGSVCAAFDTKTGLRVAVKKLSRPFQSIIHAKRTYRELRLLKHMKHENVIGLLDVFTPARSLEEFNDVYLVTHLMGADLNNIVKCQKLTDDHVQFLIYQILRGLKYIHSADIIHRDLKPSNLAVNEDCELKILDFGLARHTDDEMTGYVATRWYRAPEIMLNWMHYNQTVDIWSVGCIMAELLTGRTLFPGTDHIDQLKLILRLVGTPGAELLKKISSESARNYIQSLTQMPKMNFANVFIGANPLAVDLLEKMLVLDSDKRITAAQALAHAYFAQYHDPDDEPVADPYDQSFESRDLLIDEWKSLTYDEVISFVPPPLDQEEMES

Consider `Cc1ccc(NC(=O)Nc2sc(C(C)(C)C)cc2C(=O)N2CCN(C)C(=O)C2(C)C)cc1-c1ccc(C[N+]2([O-])CCOCC2)nc1` [4-((5-(5-(3-(5-tert-butyl-3-(2,2,4-trimethyl-3-oxopiperazine-1-carbonyl)thiophen-2-yl)ureido)-2-methylphenyl)pyridin-2-yl)methyl)morpholine 4-oxide], for which the IC50 is under 0.1 µM. The result for `CCNC(=O)c1ccc(-c2cc(NC(=O)Nc3cn(C(C)(C)C)nc3C(=O)N3CCN(C)C(=O)C3(C)C)ccc2C)cn1` [5-(5-(3-(1-tert-butyl-3-(2,2,4-trimethyl-3-oxopiperazine-1-carbonyl)-1H-pyrazol-4-yl)ureido)-2-methylphenyl)-N-ethylpyridine-2-carboxamide] reads under 0.1 µM; that for `CCNC(=O)c1ccc(-c2cc(NC(=O)Nc3cn(C(C)(C)C)nc3C(=O)N3CCNC(=O)C3(C)C)ccc2C)cn1` [5-(5-(3-(1-tert-butyl-3-(2,2-dimethyl-3-oxopiperazine-1-carbonyl)-1H-pyrazol-4-yl)ureido)-2-methylphenyl)-N-ethylpyridine-2-carboxamide], under 0.1 µM. As to `CCNC(=O)c1ccc(-c2cc(NC(=O)Nc3sc(C(C)(C)C)nc3C(=O)N3CCN(C)C(=O)C3(C)C)ccc2C)cn1` [5-(5-(3-(2-tert-butyl-4-(2,2,4-trimethyl-3-oxopiperazine-1-carbonyl)thiazol-5-yl)ureido)-2-methylphenyl)-N-ethylpyridine-2-carboxamide], the IC50 is under 0.1 µM. `CCNC(=O)c1ccc(-c2cc(NC(=O)Nc3cc(C(C)(C)C)oc3C(=O)N3CCN(C)C(=O)C3(C)C)ccc2C)cn1` [5-(5-(3-(5-tert-butyl-2-(2,2,4-trimethyl-3-oxopiperazine-1-carbonyl)furan-3-yl)ureido)-2-methylphenyl)-N-ethylpyridine-2-carboxamide]: the IC50 is under 0.1 µM. `CCNC(=O)c1ccc(-c2cc(NC(=O)Nc3cc(C(C)(C)C)sc3C(=O)N3CCN(C)C(=O)C3(C)C)ccc2C)cn1` [5-(5-(3-(5-tert-butyl-2-(2,2,4-trimethyl-3-oxopiperazine-1-carbonyl)thiophen-3-yl)ureido)-2-methylphenyl)-N-ethylpyridine-2-carboxamide]: the IC50 was under 0.1 µM. In the case of `COCCNC(=O)c1ccc(-c2cc(NC(=O)Nc3sc(C(C)(C)C)cc3C(=O)N3CCN(C)C(=O)C3(C)C)ccc2C)cn1` [5-(5-(3-(5-tert-butyl-3-(2,2,4-trimethyl-3-oxopiperazine-1-carbonyl)thiophen-2-yl)ureido)-2-methylphenyl)-N-(2-methoxyethyl)pyridine-2-carboxamide], the half-inhibitory concentration (IC50) is under 0.1 µM. `CCNC(=O)c1ccc(-c2cc(NC(=O)Nc3sc(C(C)(C)C)cc3C(=O)N3CCN(C)C(=O)C3(C)C)ccc2C)cn1` [5-(5-(3-(5-tert-butyl-3-(2,2,4-trimethyl-3-oxopiperazine-1-carbonyl)thiophen-2-yl)ureido)-2-methylphenyl)-N-ethylpyridine-2-carboxamide]: the concentration for half-maximal inhibition (IC50) was under 0.1 µM. `CON(C)C(=O)c1ccc(-c2cc(NC(=O)Nc3sc(C(C)(C)C)cc3C(=O)N3CCN(C)C(=O)C3(C)C)ccc2C)cn1` [5-(5-(3-(5-tert-butyl-3-(2,2,4-trimethyl-3-oxopiperazine-1-carbonyl)thiophen-2-yl)ureido)-2-methylphenyl)-N-methoxy-N-methylpyridine-2-carboxamide]: the IC50 was under 0.1 µM.

As for `Cc1ccc(NC(=O)Nc2sc(C(C)(C)C)cc2C(=O)N2CCN(C)C(=O)C2(C)C)cc1-c1ccc(C(N)=O)nc1` [5-(5-(3-(5-tert-butyl-3-(2,2,4-trimethyl-3-oxopiperazine-1-carbonyl)thiophen-2-yl)ureido)-2-methylphenyl)pyridine-2-carboxamide], the IC50 is under 0.1 µM. The result for `CCNC(=O)c1ccc(-c2cc(NC(=O)Nc3sc(C(C)(C)C)cc3C(=O)N3CCNC(=O)C3(C)C)ccc2C)cn1` [5-(5-(3-(5-tert-butyl-3-(2,2-dimethyl-3-oxopiperazine-1-carbonyl)thiophen-2-yl)ureido)-2-methylphenyl)-N-ethylpyridine-2-carboxamide] reads under 0.1 µM; that for `CNC(=O)c1ccc(-c2cc(NC(=O)Nc3sc(C(C)(C)C)cc3C(=O)N3CCNC(=O)C3(C)C)ccc2C)cn1` [5-(5-(3-(5-tert-butyl-3-(2,2-dimethyl-3-oxopiperazine-1-carbonyl)thiophen-2-yl)ureido)-2-methylphenyl)-N-methylpyridine-2-carboxamide], under 0.1 µM. The result for `Cc1ccc(NC(=O)Nc2sc(C(C)(C)C)cc2C(=O)N2CCN(C)C(=O)C2(C)C)cc1-c1ccc(NS(C)(=O)=O)nc1` [N-(5-(5-(3-(5-tert-butyl-3-(2,2,4-trimethyl-3-oxopiperazine-1-carbonyl)thiophen-2-yl)ureido)-2-methylphenyl)pyridin-2-yl)methanesulfonamide] reads under 0.1 µM; that for `COC(=O)CN1CCN(C(=O)c2cc(C(C)(C)C)sc2NC(=O)Nc2ccc(C)c(-c3ccncc3)c2)C(C)(C)C1=O` [methyl 2-(4-(2-tert-butyl-5-(3-(4-methyl-3-(pyridin-4-yl)phenyl)ureido)thiophene-4-carbonyl)-3,3-dimethyl-2-oxopiperazin-1-yl)acetate], under 0.1 µM.

Broadly, the IC50 is the concentration that inhibits the measured activity by half.
